{
  "source": "patent US20100172925A1",
  "about": "“HLA-A2-RESTRICTED T-CELL EPITOPES OF THE RESPIRATORY SYNCYTIAL VIRUS FUSION PROTEIN AS PEPTIDE-BASED VACCINES” (priority 2009, published 2010)",
  "key": {"[1]": {"test_system": "lungs of peptide-immunized mice infected with RSV", "assay": "Pathological staining of CD4+ and CD8+ T cells in lungs of peptide-immunized, RSV-infected mice", "format": "in vivo, mouse", "description": "A recent study has generally questioned the role of CTLs in the pathogenesis of human RSV infection. Very few CD8^+ T cells in the lung infiltrates were found in human infants infected with lethal RSV. Additionally, there was little evidence for T cell cytokines in nasal secretion and few CTL can be recovered by BAL from the infants with bronchiolitis."}, "HLA-A*0201 molecules": {"target": "T1, HLA-A*0201 molecules (Homo sapiens, UniProt P04439, D140Y/D185E/D98H/E176V/E277Q/G131W/G231S/I119V/I121R/I166T/I218V/L300P/L318F/N151K/N90K/P208A/P217A/Q86G/Q94H/R138H/R169H/T345S)", "T1 construct": "T2 cell (which expressing HLA-A*0201)-stabilization assay; endogenous in cells; host or cells: T2 cells", "assay": "T2 cell-stabilization assay (T2-based HLA-A*0201 binding)", "details": "T2 cells, peptide 50 μg/mL; for binding affinity higher than the baseline: moderate binding affinity; for mean of fluorescence intensity (MFI) ratio, binding to HLA-A*0201: ratio to negative control (MFI=1)"}, "[2]": {"test_system": "CD4+ lymphocytes of peptide-immunized HLA-Tg B6 mice", "assay": "CD4+ T cell proliferation (CFSE, cell dividing index) in peptide-immunized mice", "format": "in vivo, mouse", "details": "mice immunized s.c. twice with 50 μg peptide in IFA; 8 days of restimulation by the same peptide", "procedure": "(§1) HLA-A2.1 transgenic C57BL/6 mice were anesthetized with isoflurane and primed with 1×10^7 pfu/50 μL of rAd-F0, rAd-LacZ or 1×10^4 live RSV B1 via the intranasal (i.n.) route. Twenty days later, animals were boosted i.n. with the same dose of respective immunogens. For peptide-based vaccination, transgenic mice were immunized subcutaneously (s.c.) with 50 μg of individual synthetic peptides emulsified in 100 μL of incomplete Freund's adjuvant (IFA) and then boosted s.c. with the same dose of respective peptides mixed with IFA one week later. Mice were sacrificed 7 days after the boost. The splenocytes were isolated and stimulated with synthetic CD8 epitope peptides in the presence of 5-(6)-carboxyfluorescein diacetate succinimidyl ester (CFSE) for 4 and 8 days. Proliferated CD4^+ or CD8^+ T cell counts were analyzed by flow cytometry (BD FACSCalibur) using PE-labeled specific antibody against CD4 or CD8, respectively. […]\n(§2) To test the immunogenicity of these peptides, HLA-Tg B6 mice were immunized twice with individual IFA-emulsified peptide No. 3, 14, 23, or peptide 17 at day 0 and day 7. […] Proliferated CD4^+ and CD8^+ lymphocytes in response to CD8 epitope were counted by a flow cytometry analysis using specific anti-CD4 and CD8 antibodies conjugated with FITC, respectively. […]"}, "[3]": {"test_system": "CD8+ lymphocytes of peptide-immunized HLA-Tg B6 mice", "assay": "CD8+ T cell proliferation (CFSE, cell dividing index) in peptide-immunized mice", "format": "in vivo, mouse", "details": "mice immunized s.c. twice with 50 μg peptide in IFA; 8 days of restimulation by the same peptide", "procedure": "as §1, §2"}, "[4]": {"test_system": "spleen lymphocytes of peptide-immunized HLA-Tg B6 mice", "assay": "IFN-γ ELISPOT, peptide-restimulated splenocytes of peptide-immunized mice", "format": "in vivo, mouse", "procedure": "as §1\nFollowing 2 hr of incubation at room temperature, the plate was washed with 200 μL of wash buffer. […] The plates were washed with water, air-dried overnight, and the spots per culture were scored using the immunospot counting reader (C.T.L. IMMUNOSPOT, […] TECHNOLOGY LTD). Results were expressed as the number of cytokine-secreting cells per 5×10^5 splenocytes seeded at culture initiation. […]"}, "peptide-loaded T2 cells": {"test_system": "peptide-loaded T2 cells", "assay": "Cytotoxicity (CTL) assay, CFSE/7-AAD, splenocytes of peptide-immunized mice against peptide-loaded T2 cells", "format": "in vivo, mouse", "details": "E:T ratio of 100:1; IFA vehicle background 6.5%", "procedure": "A non-radioactive assay of cell-mediated cytotoxicity was performed using green fluorescent probes 5-(6)-carboxyfluorescein diacetate succinimidyl ester (CFSE) to label target cells in combination with 7-amino-actinomycin D (7AAD), a red fluorescent probe to label dead effector and dead target cells. The assay was used to assess the presence of the RSV F protein-specific CTLs in the spleens or lungs of the immunized animals [Russell et al. (2002) “Lymphocyte-mediated cytotoxicity” Annu Rev Immunol 20:323-70]. The assay protocol was in accordance with the manufacturer's instructions (Cayman Chemical, Michigan, USA). […]\nThe CFSE-labeled target cells were resuspended in the culture medium and incubated at 37° C. of CO2 incubator for 30 minutes. […] The CFSE positive cells were measured in the FL1 channel and 7-AAD stained cells were measured in the FL3 channel. The percentage of CFSE/7-AAD double positive target cells (i.e., T2 cell death) was analyzed.\nIt has been reported that in primary RSV infection of BALB/c mice, CTLs generated against the F, matrix 2 (M2) and N viral proteins play a protective role in virus clearance. […] A mean background percentage of the killed target cells co-cultured with the control splenocytes isolated from the mouse previously immunized with the vehicle IFA was scored (6.5% at the E:T ratio of 100:1). […]"}, "RSV-B1": {"test_system": "RSV-B1", "assay": "Viral load in lungs after live RSV-B1 challenge of peptide-immunized mice", "format": "in vivo, mouse", "details": "two doses of peptide; challenge 10^6 pfu live RSV-B1; 4 days post challenge", "procedure": "as §1, with “The splenocytes were isolated and stimulated with synthetic CD8 epitope peptides in the presence of 5-(6)-carboxyfluorescein diacetate succinimidyl ester (CFSE) for 4 and 8 days.” left out\nIn FIG. 5, mice were immunized via the intranasal route twice with the immunogen as indicated before they were intranasally challenged with 10^6 pfu of live RSV B1. Viral plaques in the lungs of the individual mice were determined 4 days post the challenge using plaque-forming assay as described in the methods. Results were expressed as the plaque number for each mouse. […] 14 and subsequently challenged with 1×10^6 pfu of live RSV-B1 viruses, as compared to 282±116 plaques detected in the lung tissues of mice immunized with the adjuvant IFA alone. […]"}, "[5]": {"test_system": "eosinophile count in peripheral blood or lung", "format": "in vivo, mouse", "details": "peptide-immunized mice challenged with RSV; data not shown"}},
  "note": "“Also recorded” adds a separate entry of the source. No end group written: not given here.",
  "data": [
    {"sequence": "AITTILAAV [compound 3]", "values": [
      {"measurement": "infiltrated CD4+ and CD8+ T cells in the lungs", "setting": "[1]", "result": "few infiltrated CD4^+ and CD8^+ T cells"}
    ]},
    {"sequence": "ALLSTNKAV (F193-201) [compound 8, 9-mer synthetic peptide from the F protein of RSV-B1 strain]", "values": [
      {"measurement": "binding affinity higher than the baseline", "setting": "HLA-A*0201 molecules", "result": 10, "unit": "%"}
    ]},
    {"sequence": "FLLGVGSAI (F163-171) [compound 6, 9-mer synthetic peptide from the F protein of RSV-B1 strain]", "values": [
      {"measurement": "binding affinity higher than the baseline", "setting": "HLA-A*0201 molecules", "result": 10, "unit": "%"}
    ]},
    {"sequence": "KIMTSKTDV [compound 17]", "values": [
      {"measurement": "infiltrated CD4+ and CD8+ T cells in the lungs", "setting": "[1]", "result": "few infiltrated CD4^+ and CD8^+ T cells"}
    ]},
    {"sequence": "KLMSNNVQI (F295-303) [compound 15, 9-mer synthetic peptide from the F protein of RSV-B1 strain]", "values": [
      {"measurement": "mean of fluorescence intensity (MFI) ratio, binding to HLA-A*0201", "setting": "HLA-A*0201 molecules", "result": "about 1.5"}
    ]},
    {"sequence": "KVLDLKNYI (F214-222) [compound 13, 9-mer synthetic peptide from the F protein of RSV-B1 strain]", "values": [
      {"measurement": "binding activity to HLA-A*0201 molecules (in words)", "setting": "HLA-A*0201 molecules", "result": "strong binding activity"},
      {"measurement": "binding affinity higher than the baseline", "setting": "HLA-A*0201 molecules", "result": 10, "unit": "%"},
      {"measurement": "CD4+ cell proliferation", "setting": "[2]", "result": "did not manifest cell proliferation"},
      {"measurement": "CD8+ lymphocyte proliferation", "setting": "[3]", "result": "did not elicit CD8^+ lymphocyte proliferation"},
      {"measurement": "IFN-γ level (ELISPOT, in words)", "setting": "[4]", "result": "background level of IFN-γ"},
      {"measurement": "percentage of killed target cells (CFSE and 7-AAD double positive T2 cells), CTL response", "setting": "peptide-loaded T2 cells", "result": 15.4, "unit": "%"},
      {"measurement": "protection against live RSV challenge (lung viral plaques, in words)", "setting": "RSV-B1", "result": "not protected"}
    ]},
    {"sequence": "LLSLIAVGL (F561-569) [compound 24, 9-mer synthetic peptide from the F protein of RSV-B1 strain]", "values": [
      {"measurement": "mean of fluorescence intensity (MFI) ratio, binding to HLA-A*0201", "setting": "HLA-A*0201 molecules", "result": "about 1.5"}
    ]},
    {"sequence": "LLSTNKAVV (F194-202) [compound 9, 9-mer synthetic peptide from the F protein of RSV-B1 strain]", "values": [
      {"measurement": "mean of fluorescence intensity (MFI) ratio, binding to HLA-A*0201", "setting": "HLA-A*0201 molecules", "result": "about 1.5"}
    ]},
    {"sequence": "LMSNNVQIV (F296-304) [compound 16, 9-mer synthetic peptide from the F protein of RSV-B1 strain]", "values": [
      {"measurement": "mean of fluorescence intensity (MFI) ratio, binding to HLA-A*0201", "setting": "HLA-A*0201 molecules", "result": "about 1.5"}
    ]},
    {"sequence": "SLIAVGLLL (F563-571) [compound 25, 9-mer synthetic peptide from the F protein of RSV-B1 strain]", "values": [
      {"measurement": "binding affinity higher than the baseline", "setting": "HLA-A*0201 molecules", "result": 10, "unit": "%"}
    ]},
    {"sequence": "SVGNTLYYV (F474-482) [compound 18, 9-mer synthetic peptide from the F protein of RSV-B1 strain]", "values": [
      {"measurement": "binding affinity higher than the baseline", "setting": "HLA-A*0201 molecules", "result": 10, "unit": "%"}
    ]},
    {"sequence": "TLLLWVLLL (F5-13) [compound 1, 9-mer synthetic peptide from the F protein of RSV-B1 strain]", "values": [
      {"measurement": "binding affinity higher than the baseline", "setting": "HLA-A*0201 molecules", "result": 10, "unit": "%"}
    ]},
    {"sequence": "VILLSLIAV [compound 23]", "values": [
      {"measurement": "infiltrated CD4+ and CD8+ T cells in the lungs", "setting": "[1]", "result": "more infiltrated CD4^+ and CD8^+ T cells; also recorded: severe CD8^+ lymphocytic inflammation"},
      {"measurement": "eosinophilia (eosinophile count in peripheral blood or lung)", "setting": "[5]", "result": "not eosinophilia"}
    ]},
    {"sequence": "YMLTNSELL [compound 14]", "values": [
      {"measurement": "infiltrated CD4+ and CD8+ T cells in the lungs", "setting": "[1]", "result": "few infiltrated CD4^+ and CD8^+ T cells"},
      {"measurement": "eosinophilia (eosinophile count in peripheral blood or lung)", "setting": "[5]", "result": "absence of pulmonary eosinophilia"}
    ]}
  ]
}
